The record followed here is US4629737A, “Secondary amines and use in pharmaceutical compositions” (Beecham Group p.l.c., priority 1982, dated 1986).

Structures can show the parent of a compound that is named as a salt. Where two headings read alike, the source gives them in different places.

The subject of test [1] is platelet aggregation in human whole blood. Nature of the test: Collagen-induced platelet aggregation in human whole blood in vitro. To be noted: 3 mins pre-incubation. In kind it is cell-based. As to the method: Collagen-induced platelet aggregation in human whole blood in vitro.
Collagen added to stirred citrated blood causes platelet aggregation. As the platelets aggregate, the concentration of single platelets falls. […] Inhibitors of aggregation, such as aspirin and dipyridamole, reduce the response to collagen.
Blood drawn from volunteers who denied taking aspirin within the previous seven days was mixed with 0.1 vol 129 mM trisodium citrate, dispensed into 0.5 ml aliquots and kept at 25° C. Collagen (Hormon-Chemie, Munich) or 154 mM NaCl (control) was added to each aliquot of blood stirred at 1100 rpm in an aggregometer at 37° C. after 3 mins pre-incubation with compound or appropriate solvent. Aggregates were fixed by addition of 0.5 vol 4.5% formaldehyde or 0.05 vol phosphate-buffered glutaraldehyde. Single platelets were counted electronically. Responses, expressed as percent fall in platelet count, were obtained to a range of collagen concentrations. The concentration producing 50% maximal effect (EC50) was estimated from log10 concentration-response curves. Dose-ratios were calculated by dividing the EC50 obtained in the presence of compound under test by the control EC50.

The next test concerns blood glucose. Briefly: Hypoglycaemic activity: reduction in area under blood glucose curve after glucose load. The note with it: Mus musculus, read-out: % Reduction in area under Blood Glucose Curve; for inhibition in vivo at 25 µmol/kg: 25 μmol/Kg oral. In kind it is in vivo, Female CFLP mice. An outline of the steps: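 Female CFLP mice (~25 g, 24 h fasted, n=6) dosed orally with aqueous compound; water controls. Glucose 1 g/Kg s.c. given 30 min later, tail blood glucose sampled every 30 min for 120 min. Activity defined as significant (P<0.05) reduction versus controls; 2 h glucose AUC compared with controls.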

Test [2] can be described thus: Effect on energy expenditure of mice. The note with it: Mus musculus; for response vs control in vivo at 23.9 mg/kg: 23.9 mg/kg po; for response vs control in vivo at 8.5 mg/kg: 8.5 mg/kg po. In kind it is in vivo, Female CFLP mice. An outline of the steps: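 Female CFLP mice (~24 g, fed ad lib; n=12 per group) dosed orally with compound as the hydrochloride (1 mol HCl per mol) in water, vehicle controls receiving water. Energy expenditure over 21 h post-dose calculated from outflow air volume and oxygen content by the Weir method.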

Another test has as its system right atrium. Nature of the test: Isolated rat atria screen: rate of spontaneously beating right atrium. Further details: species or system Sprague-Dawley male rats. The note with it: for Emax: maximal effect relative to isoprenaline maximum (=1), read-out: Rate i.a. (intrinsic activity). As to the method:
(§1) Sprague-Dawley male rats (300-400 g) are killed and the right and left atria dissected out independently and mounted on a combined tissue holder/electrode. The tissues are then immersed in a glass bath containing Krebs solution maintained at 32° C. The rate of the spontaneously beating right atrium (via an isometric transducer and a ratemeter) and the tension of the electrically paced left atrium (via an isometric transducer) are recorded on an M19 chart recorder.
(§2) After an initial stabilization period, the tissues are exposed to a maximal concentration of isoprenaline (10^-7 M). The tissues are then washed several times until rate and tension return to baseline level. A dose-response curve to the test compound is then carried out.
(§3) Responses to each concentration of test compound are expressed as a percentage of the maximal responses to isoprenaline. Results are given in the form of (a) intrinsic activity (i.a.) (maximal effect of test compound with respect to isoprenaline maximum, i.e. isoprenaline intrinsic activity=1) and (b) EC50 (the molar concentration at which the test compound produces 50% of its own maximum response).

The test system of the next test is left atrium. Briefly: Isolated rat atria screen: tension of electrically paced left atrium. Set-up: species or system Sprague-Dawley male rats. The note with it: for EC50: concentration producing 50% of its own maximum response; for Emax: maximal effect relative to isoprenaline maximum (=1), read-out: Tension i.a. (intrinsic activity). Here is the method:
as §1, §2, §3

The next test concerns rat ear. Nature of the test: Topical anti-inflammatory activity, croton oil induced rat ear inflammation. In kind it is in vivo. To be noted: 1.00 mg/rat ear; 6 h; shown by significant (5% level) reduction in ear weight vs non-drug treated control. Here is the method: The method used is based on that described by G. Tonelli et al (Endocrinology, 77, 625-634, 1965). An inflammation is induced in the rat ear by the application of 50 μl of a 1% solution of croton oil in tetrahydrofuran, test compounds being dissolved in the irritant vehicle. After 6 hours the inflammation is assessed by killing the animals and weighing the ears. Topical anti-inflammatory activity of a compound is generally considered to be shown when a significant (5% level) reduction in ear weight is seen compared to non-drug treated control.

Where [3] appears, read: final concentration in whole blood 200 μM.
Where [4] appears, read: po, 3 h, read-out: Mean Energy Expenditure (0-3 h).
Where [5] appears, read: po, 21 h, read-out: Mean Energy Expenditure (0-21 h).
Where [6] appears, read: 2 h after glucose 1 g/Kg s.c., vs control.
Where [7] appears, read: 0-3 h, read-out: Mean Energy Expenditure (0-3 h).
Setting [8] is: 0-21 h, read-out: Mean Energy Expenditure (0-21 h).

For `CC(=O)Oc1ccccc1C(=O)O` [Aspirin, reference compound], the “DOSE RATIO (EC50 of collagen with compound / control EC50)” value in test [1] (setting [3]) is recorded as 2.0 ± 0.1.
With `OCCN(CCO)c1nc(N2CCCCC2)c2nc(N(CCO)CCO)nc(N3CCCCC3)c2n1` [Dipyridamole, reference compound], in test [1] (setting [3]), the “DOSE RATIO (EC50 of collagen with compound / control EC50)” value was 3.7 ± 1.1.
Take `COC(=O)COc1ccc(CC(C)NCC(OC)c2cccc(Cl)c2)cc1.Cl` (stereo not drawn) [Example 1, N-[2-(4-Carbomethoxymethoxyphenyl)-1-methylethyl]-2-methoxy-2-(3-chlorophenyl)ethanamine hydrochloride]: in the test on blood glucose (po, 2 h), the inhibition in vivo at 0.25 µmol/kg was found to be 47%. Also, the response vs control in vivo at 21.4 mg/kg in test [2] (setting [4]) was 151%; in test [2] (setting [5]), 138%. Further, the Emax in the test on right atrium turned out to be 0%; in the test on left atrium, 30%. The concentration giving a half-maximal response (EC50) (usually the concentration needed to bring the measured effect to its halfway point) with left atrium was determined as 30 µM. Moreover, the “Topical anti-inflammatory ACTIVITY” value with rat ear is given as “Active”. Further, the “DOSE RATIO (EC50 of collagen with compound / control EC50)” value in test [1] (final concentration in whole blood 300 μM) is given as 6.9.
On to `CNCCOc1ccc(CC(C)NCC(OC)c2cccc(Cl)c2)cc1` (stereo not drawn) [Example 6, N-[2-(4-(2-Methylaminoethoxy)phenyl)-1-methylethyl]-2-methoxy-2-(3-chlorophenyl)ethanamine dihydrochloride], for which, in the test on blood glucose (po, 2 h), the inhibition in vivo at 12.5 µmol/kg turned out to be 55%. For the same compound, the response vs control in vivo at 22.5 mg/kg was determined as 154% in test [2] (setting [4]) and 126% in test [2] (setting [5]). For the same compound, the Emax in the test with right atrium and with left atrium was 0% throughout.
Turning to `CNC(=O)COc1ccc(CC(C)NCC(OC)c2cccc(C(F)(F)F)c2)cc1` (stereo not drawn) [Example 7, N-[2-(4-Methylaminocarbonylmethoxyphenyl)-1-methylethyl]-2-methoxy-2-(3-trifluoromethylphenyl)ethanamine hydrochloride], the inhibition in vivo at 2.5 µmol/kg in the test with blood glucose (po, 2 h) came to 32%. Further, the response vs control in vivo at 23 mg/kg in test [2] (setting [4]) is 143%; in test [2] (setting [5]), 123%. The EC50 in the test with right atrium (concentration producing 50% of its own maximum response) stood at 1.5 µM; in the test with left atrium, 36 µM. Moreover, the Emax with right atrium amounted to 6%; in the test with left atrium it was 23%.
As to `CCCOC(CNC(C)Cc1ccc(OCCNC)cc1)c1cccc(Cl)c1` (stereo not drawn) [Example 29, N-[2-(4-(2-Methylaminoethoxy)phenyl)-1-methylethyl]-2-^n propoxy-2-(3-chlorophenyl)ethanamine dihydrochloride], in the test with blood glucose (setting [6]), the inhibition in vivo at 25 µmol/kg was 43%. In addition, the response vs control in vivo at 23.9 mg/kg was found to be 144% in test [2] (setting [7]) and 118% in test [2] (setting [8]). For the same compound, the “Topical anti-inflammatory ACTIVITY” value in the test with rat ear is given as “Active”. Moreover, the “DOSE RATIO (EC50 of collagen with compound / control EC50)” value in test [1] (final concentration in whole blood 100 μM) is given as 10.8.
Take `CNC(=O)COc1ccc(CC(C)NCC(OC)c2cccc(C)c2)cc1` (stereo not drawn) [Example 56, N-[2-(4-Methylaminocarbonylmethoxyphenyl)-1-methylethyl]-2-methoxy-2-(3-methylphenyl)ethanamine hydrochloride]: the inhibition in vivo at 12.5 µmol/kg in the test with blood glucose (po, 2 h) was found to be 40%. The response vs control in vivo at 20.4 mg/kg in test [2] (setting [4]) is 148%; in test [2] (setting [5]) it was 108%.
Turning to `COC(CNC(C)Cc1ccc(OCCOc2ccccc2)cc1)c1cccc(Cl)c1` (stereo not drawn) [Example 57, N-[2-(4-(2-Phenoxyethoxy)phenyl)-1-methylethyl]-2-methoxy-2-(3-chlorophenyl)ethanamine hydrochloride], the inhibition in vivo at 2.5 µmol/kg in the test with blood glucose (po, 2 h) was determined as 28%. The response vs control in vivo at 23.8 mg/kg in test [2] (setting [4]) amounted to 178%; in test [2] (setting [5]) it was 123%.
For `COC(=O)CN(C)c1ccc(CC(C)NCC(OC)c2ccccc2)cc1` (stereo not drawn) [Example 58, N-[2-(4-N'-Methyl-N'-carbomethoxymethylaminophenyl)-1-methylethyl]-2-methoxy-2-phenylethanamine dihydrochloride], in the test with blood glucose (2.5 μmol/Kg oral, 2 h after glucose 1 g/Kg s.c., vs control), the inhibition in vivo at 2.5 µmol/kg is 17%. Besides, the response vs control in vivo at 22.1 mg/kg in test [2] (setting [5]) was 108%; in test [2] (22.1 mg/kg po, 0-3 h, read-out: Mean Energy Expenditure (0-3 h)) it was 131%.
Turning to `CNCCOc1ccc(C[C@@H](C)NC[C@H](OC)c2ccccc2)cc1` [Example 59, N-[2-(4-(2-Methylaminoethoxy)phenyl)-1-(R)-1-methylethyl]-2-(R)-2-methoxy-2-phenylethanamine dihydrochloride hemihydrate], the inhibition in vivo at 25 µmol/kg in the test with blood glucose (setting [6]) was 36%. In addition, the response vs control in vivo at 8.5 mg/kg in test [2] (setting [7]) was 148%; in test [2] (setting [8]) it was 111%.
